# Experimental data: ChEMBL document CHEMBL5104114, “Synthesis and medicinal chemistry of tetronamides: Promising agrochemicals and antitumoral compounds” (Bioorg Med Chem, 2022)
# Key:
# A549 = assay: Antiproliferative activity against human A549 cells assessed as inhibition of cell growth at 100 uM by MTT assay relative to control; assay type: functional
# [1] = Toxicity in Myzus persicae assessed as mortality at 0.80 mg/L relative to control; conditions: at 0.8 µg/mL, dose 0.8 mg/L
# Synechococcus elongatus = assay: Antibacterial activity against Synechococcus elongatus PCC 6301 by plate reader method; assay type: functional, organism-based
# [2] = biological target: ATP-sensitive inward rectifier potassium channel 1 (Homo sapiens, UniProt P48048); assay: Inhibition of ROMK (unknown origin) by Thallium Efflux assay
# Sequence of ATP-sensitive inward rectifier potassium channel 1 (P48048 whole entry): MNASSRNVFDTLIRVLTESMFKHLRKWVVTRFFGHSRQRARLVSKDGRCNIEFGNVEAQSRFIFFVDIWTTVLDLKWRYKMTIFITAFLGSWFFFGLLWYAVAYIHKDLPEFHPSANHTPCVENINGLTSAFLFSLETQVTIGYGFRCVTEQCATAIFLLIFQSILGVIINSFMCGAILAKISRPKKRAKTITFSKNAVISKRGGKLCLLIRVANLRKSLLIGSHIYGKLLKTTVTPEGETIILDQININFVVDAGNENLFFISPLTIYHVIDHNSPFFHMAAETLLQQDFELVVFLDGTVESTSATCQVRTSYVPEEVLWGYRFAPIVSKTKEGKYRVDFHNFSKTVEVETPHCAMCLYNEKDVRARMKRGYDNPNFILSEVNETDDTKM
# Escherichia coli [3] = assay: Antibacterial activity against Escherichia coli; assay type: functional
# Pseudomonas aeruginosa = assay: Antibacterial activity against Pseudomonas aeruginosa; assay type: functional
# Staphylococcus aureus = assay: Antibacterial activity against Staphylococcus aureus; assay type: functional
# Escherichia coli [4] = assay: Antibacterial activity against Escherichia coli ATCC 25922; assay type: functional
# Klebsiella pneumoniae = assay: Antibacterial activity against Klebsiella pneumoniae patient isolate; assay type: functional
# [5] = Reversal of heartbeat inhibition in embryonic chicken cardiac cells; assay type: functional, cell-based, Gallus gallus; conditions: cardiac muscle cell
# [6] = Toxicity in Nilaparvata lugens assessed as mortality at 100 mg/ml relative to control; design: dose or concentration left out as unconfirmed
# [7] = Toxicity in Aphis craccivora assessed as mortality at 100 mg/ml relative to control; design: dose or concentration left out as unconfirmed
# [8] = Toxicity in Aphis gossypii assessed as mortality at 4 mg/L relative to control; conditions: at 4 µg/mL
# [9] = Toxicity in Anopheles darlingi larvae measured after 48 hrs; design: species or system Larva
# [10] = Toxicity in Spodoptera littoralis larvae; design: species or system Larva
# P388 = assay: Cytotoxicity against mouse P388 cells measured after 48 hrs by MTT assay; assay type: functional, cell-based; conditions: P388, 48 h
# Streptomyces sp. = assay: Antibacterial activity against Streptomyces sp. ATCC 23836; assay type: functional
# Botrytis cinerea = assay: […] activity against Botrytis cinerea; assay type: functional
# [11] = Toxicity in mouse engrafted with mouse L1210 cells assessed as lethal dose measured per […]; assay type: cell-based
# [12] = Inhibition of DNA in mouse L1210 cells; assay type: cell-based
# [13] = Inhibition of RNA in mouse L1210 cells; assay type: cell-based
# Vibrio anguillarum = assay: Antibacterial activity against Vibrio anguillarum NCMB6; assay type: functional
# Aeromonas salmonicida = assay: Antimicrobial activity against Aeromonas salmonicida ATCC 14174; assay type: functional
# Brevibacillus brevis = assay: Antibacterial activity against Bacillus brevis; assay type: functional
# [14] = Toxicity in Myzus persicae assessed as mortality at 20 mg/L relative to control; conditions: at 20 µg/mL
# [15] = Toxicity in Myzus persicae assessed as mortality relative to control
# Porphyromonas gingivalis = assay: Antibacterial activity against Porphyromonas gingivalis ATCC 33277 by REMA; assay type: functional
# [16] = tested on: Mycobacterium tuberculosis; assay: Antibacterial activity against Mycobacterium tuberculosis ATCC 27294 by REMA; assay type: functional
# [17] = Inhibition of mitochondrial complex III (unknown origin); design: species or system Homo sapiens
# Leishmania amazonensis = assay: Antileishmanial activity against Leishmania amazonensis incubated for 24 hrs; assay type: functional, organism-based
# [18] = Toxicity in Nilaparvata lugens assessed as mortality at 20 mg/L relative to control; conditions: at 20 µg/mL
# [19] = Toxicity in Aphis craccivora assessed as mortality at 20 mg/L relative to control; conditions: at 20 µg/mL
# [20] = Cytotoxicity against human L02 cells measured after 24 hrs by MTT assay; assay type: toxicity, cell-based
# DU-145 = assay: Antiproliferative activity against human DU-145 cells measured after 48 hrs by MTT assay; assay type: cell-based; conditions: DU-145, 48 h
# MCF7 = assay: Antiproliferative activity against human MCF7 cells measured after 48 hrs by MTT assay; assay type: cell-based; conditions: MCF7, 48 h
# HCT-116 = assay: Antiproliferative activity against human HCT-116 cells measured after 48 hrs by MTT assay; assay type: cell-based; conditions: HCT-116, 48 h
# SMMC-7721 = assay: Antiproliferative activity against human […] cells measured after 24 hrs by MTT assay; assay type: functional, cell-based; conditions: SMMC-7721, 24 h
# [21] = Inhibition of serotonin induced dermal vascular permeability in Sprague-Dawley rat blood vessels at 100 mg/kg, ip measured after 5 mins relative to control; assay type: functional; conditions: Blood vessel
# [22] = Inhibition of histamine induced dermal vascular permeability in Sprague-Dawley rat blood vessels at 100 mg/kg, ip measured after 5 mins relative to control; assay type: functional; conditions: Blood vessel
# [23] = Inhibition of bradykinin induced dermal vascular permeability in Sprague-Dawley rat blood vessels at 100 mg/kg, ip measured after 5 mins relative to control; assay type: functional; conditions: Blood vessel
compound,measurement,setting,value
CC[C@H](C)[C@H](NC1=C(Br)C(=O)O[C@@H]1O[C@@H]1C[C@H](C)CC[C@H]1C(C)C)C(=O)OC,inhibition at 100 µM,A549,97.2%
NCCN(Cc1ccc(Cl)nc1)C1=CC(=O)OC1,Activity,[1],100%
Cc1ccc(NC2=C(Cl)C(=O)O[C@H]2[C@H](O)c2ccc(-c3ccccc3)cc2)cc1,IC50,Synechococcus elongatus,4400 nM
Cc1c([C@H](O)CN2CCC3(CC2)CCN(C2=C(F)C(=O)OC2)CC3)ccc2c1COC2=O,IC50,[2],7 nM
O=C1OC2C(=C1Cl)N2Cc1ccccc1 (stereo unspecified),MIC50,Escherichia coli [3],8 µg/mL
same,MIC50,Pseudomonas aeruginosa,16 µg/mL
same,MIC50,Staphylococcus aureus,4 µg/mL
COC1OC(=O)C(Br)=C1n1cnc2cc(C)c(C)cc21 (stereo unspecified),MIC50,Pseudomonas aeruginosa,8 µg/mL
same,MIC50,Escherichia coli [4],2 µg/mL
same,MIC50,Klebsiella pneumoniae,16 µg/mL
CCOC(=O)C1C(C)NC2=C(C(=O)OC2)C1c1ccccc1OC(F)F (stereo unspecified),EC50,[5],60 nM
O=C1C=C(N(Cc2ccc(Cl)nc2)CC(F)F)CO1,Activity,[6],100%
same,Activity,[7],90%
same,Activity,[8],98%
same,Activity,[1],100%
same,LC50,[9],1.18 µg/mL
CCCC[C@@]12[C@@H]3C[C@H]4[C@H]5[C@H](C)/C(=C6/OC(=O)C(C)=C6OC)O[C@]5(O3)[C@@H]1CCN42,LC50,[10],2 µg/mL
O=C1O[C@@H]([C@H](O)c2ccc(-c3ccccc3)cc2)C(Nc2ccc(Br)cc2)=C1Cl,IC50,Synechococcus elongatus,1300 nM
COc1cc([C@@H]2c3cc4c(cc3[C@H](O)[C@H]3COC(=O)[C@H]23)OCO4)cc(OC)c1OC [PODOFILOX],IC50,P388,10400 nM
NC1=CC(=O)O/C1=C/C=O,MIC50,Streptomyces sp.,100 µg/mL
same,MIC50,Botrytis cinerea,100 µg/mL
same,LC50,[11],6.25 mg
same,IC50,[12],0.4 µg/mL
same,IC50,[13],0.6 µg/mL
same,MIC50,Vibrio anguillarum,100 µg/mL
same,MIC50,Aeromonas salmonicida,100 µg/mL
same,MIC50,Brevibacillus brevis,50 µg/mL
O=C1C=C(N(CCF)Cc2cnc(Cl)c(Cl)c2)CO1,Activity,[14],100%
CCN(CC)C1=C(Cl)C(=O)OC1OC (stereo unspecified),inhibition at 100 µM,A549,80.5%
N#CC1(c2cncc(Cl)c2)CC2CCC(C1)N2CC(F)F (stereo unspecified),Activity,[15],> 80%
COc1cc(C2C3=C(COC3=O)Nc3cc4c(cc32)OCO4)c([N+](=O)[O-])cc1OC (stereo unspecified),MIC50,Porphyromonas gingivalis,25 µg/mL
same,MIC50,[16],250 µg/mL
CCCCCC[C@H](O)CCC[C@H](O)[C@H]1CC[C@H]([C@H]2CC[C@H]([C@H](O)CCCCCCCCCCCCC3=C(N)[C@H](C)OC3=O)O2)O1,IC50,[17],40 nM
CCOC(=O)[C@H](Cc1ccccc1)NC1=C(Cl)C(=O)O[C@@H]1O[C@@H]1C[C@H](C)CC[C@H]1C(C)C,inhibition at 100 µM,A549,91.8%
COc1cc(C2C3=C(COC3=O)Nc3cc4c(cc32)OCO4)cc(OC)c1OC (stereo unspecified),IC50,P388,4530 nM
COc1cc2c(c(OC)c1OC)C(c1ccc(C(F)(F)F)cc1)C1=C(COC1=O)N2 (stereo unspecified),IC50,Leishmania amazonensis,6220 nM
CN(Cc1ccc(Cl)nc1)C1=C(Br)C(=O)OC1OCCF (stereo unspecified),Activity,[18],92%
same,Activity,[19],100%
COC1OC(=O)C(Cl)=C1N1CCN(CCCCCC[C@H]2CN([C@@H]3OC4O[C@]5(C)CC[C@H]6[C@H](C)CC[C@@H]([C@H]3C)[C@@]46OO5)CCS2(=O)=O)CC1 (stereo partly specified),IC50 at 24 h,[20],70000 nM
same,IC50,DU-145,20 nM
same,IC50,MCF7,10 nM
same,IC50,HCT-116,10 nM
same,IC50,SMMC-7721,30 nM
O=C(N[C@H]1C[C@@H]1c1ccccc1)C1=C(Nc2ccc(Cl)cc2)COC1=O,inhibition in vivo at 100 mg/kg,[21],94%
same,inhibition in vivo at 100 mg/kg,[22],92%
same,inhibition in vivo at 100 mg/kg,[23],100%
